# Laboratory results: US8507677B2, “Fluorescent probe” (The University of Tokyo, priority 2007, dated 2013)
# Assay: pKa values of pH probes (control of pKa by changing structure)
# Assay type: physicochemical
# Conditions: pH probe
# From the text: By using the pH probe described in the present invention, change of pH can be detected in a range including pKa of the compound according to the fluorescence ratio method or the absorbance ratio method. Compounds 1 to 5 have different pKa values, and accordingly, pH ranges suitable for the detection are different among them. Therefore, a pH probe suitable for a pH range desired to be detected can be chosen and used by utilizing the difference. Similarly, by suitably choosing R^3, R^4 and/or R^5 in the general formula (I), or R^13, R^14 and/or R^15 in the general formula (IA), a pH probe having a desired pKa and thus suitable for measurement of a desired pH range can be designed and provided.
row,SMILES,pKa
1,CN(C)CCN(C)C1=C(/C=C/C2=[N+](C)c3ccccc3C2(C)C)CCC/C1=C\C=C1\N(C)c2ccccc2C1(C)C [Compound 2],8.1
2,CN1/C(=C/C=C2\CCCC(/C=C/C3=[N+](C)c4ccccc4C3(C)C)=C2N2CCN(Cc3ccccc3)CC2)C(C)(C)c2ccccc21 [Compound 1],5.5
3,CN1/C(=C/C=C2\CCCC(/C=C/C3=[N+](C)c4ccccc4C3(C)C)=C2N2CCN(c3ccccc3)CC2)C(C)(C)c2ccccc21 [Compound 5],2.1
4,CN1CCN(C2=C(/C=C/C3=[N+](C)c4ccccc4C3(C)C)CCC/C2=C\C=C2\N(C)c3ccccc3C2(C)C)CC1 [Compound 4],6.8
5,CCN(CC)CCN(C)C1=C(/C=C/C2=[N+](C)c3ccccc3C2(C)C)CCC/C1=C\C=C1\N(C)c2ccccc2C1(C)C [Compound 3],8.7
